Test results taken from patent US6815542B2 (priority 2000, dated 2004).

Assays:
[1] = Oral administration in rats over four weeks (clinical pathology); format: in vivo; details: 180 mg/kg over four weeks
Source text: Furthermore, it is contemplated that treatment of a viral disease with Levovirin is predominantly based on the modulation of the Th1/Th2 balance towards a Th1 dominated response, and not predominantly based on a direct antiviral effect. The term “direct antiviral” effect or activity as used herein refers to an immediate effect or activity of a drug on viral assembly or replication. In contrast, a reduction of viral activity or replication that is at least in part mediated by one or more components of the immune system is not considered a “direct antiviral” effect or activity. Likewise, it should be appreciated that a relative reduction of the Th2 response during a treatment may be especially advantageous in diseases that are correlated with an increased Th2 response (e.g., HCV infection).

[2] = test system: IMP dehydrogenase; details: cited from earlier work
[3] = test system: ten different viruses; details: compared with Ribavirin; cited from earlier work
[4] = preliminary toxicology studies; cited from earlier work

Row | SMILES | clinical pathology after oral administration [1] | inhibition of IMP dehydrogenase [2] | antiviral activity [3] | toxicity relative to Ribavirin [4]
1 | NC(=O)c1ncn([C@H]2O[C@@H](CO)[C@H](O)[C@@H]2O)n1 [Levovirin] | did not produce any observable clinical pathology | – | – | –
2 | NC(=O)c1ncn([C@@H]2O[C@H](CO)[C@@H](O)[C@H]2O)n1 [Ribavirin, 1-β-D-ribofuranosyl-1,2,4-triazole-3-carboxamide] | significant hemolytic anemia and leukopenia | inhibitor of IMP dehydrogenase | – | –
3 | N=C(N)c1ncn([C@@H]2O[C@H](CO)[C@@H](O)[C@H]2O)n1 [Viramidine] | – | inhibitor of IMP dehydrogenase | active in ten different viruses—comparable to Ribavirin | less toxic than Ribavirin
